Measured values published in patent publication US20110053160A1, “HCV NS3/4A REPLICON SHUTTLE VECTORS” (priority 2009, published 2011).
Where two headings read alike, the source gives them in different places.

Tests used:
[1] = Transient replicon assay, IC50 determination (firefly luciferase reporter), shuttle vector replicons with patient-derived NS3/4A; type: cell-based, HCV; conditions: Hepatitis C virus, Huh-7, 72 h, luciferase read 72 hours after addition of inhibitor, read-out: IC50 VX-950
Description: DNA sequences encoding the NS3/4A protein were generated from plasma obtained from patients infected with HCV using reverse transcription of RNA followed by PCRamplification of the reverse-transcribed product. Reverse transcription of RNA was performed using Taqman Reverse Transcription Reagents (Applied Biosystems, Foster City, Calif., USA) using the primer, 5′-ACCAGGTCCTCSGTGGAGG-3′ (SEQ ID NO:9) and according to the manufacturers' protocol. The synthesized cDNA was then PCR-amplified with the GC RICH PCR system (Roche Applied Science) to ensure high fidelity and robust yields. Annealing temperatures in the range of 50-52° C. were used depending on patient sample and primer combinations. Two PCR reactions with two independent primer sets used for the first round PCR were as follows:
Five micrograms of DNA was linearized by Sca I restriction enzyme (Roche Applied Science). After overnight digestion at 37° C., the DNA was purified using Qiagen PCR purification kit. Eight microliters of linearized DNA was used for the in vitro transcription using T7 RiboMAX Express Large Scale RNA Production System kit following manufacturer's protocol (Promega, Madison, Wis., USA). After 2 hours of incubation at 37° C., DNase treatment was performed for 20 minutes at 37° C. to remove the DNA template. In vitro transcribed RNA was then purified using RNeasy mini kit following manufacturer's protocol (Qiagen).
Cured hepatoma cell line Huh7 was obtained from R. Bartenschlager. Cells were cultured at 37° C. in a humidified atmosphere with 5% CO2 in Dulbecco's Modified Eagle Medium (DMEM) supplemented with Glutamax and […] sodium pyruvate (Cat# 10569-010). The medium was further supplemented with 10% (v/v) FBS (Cat# 16000-036) and 1% (v/v) penicillin/streptomycin (Cat# 15140-122). All reagents were from Invitrogen.
Four million cured Huh7 cells were transfected with 10 μg of in vitro transcribed RNA using electroporation. Cells were then resuspended in 12 ml of DMEM containing 5% FBS and plated in 96-well plate at 28,800 cells/well (in 90 μl final volume) Inhibitors were added 24 hours post-transfection in 3 fold dilutions at a final DMSO concentration of 1% and firefly luciferase reporter signal was read 72 hours after addition of inhibitors using the Luciferase Assay system (Promega, cat #E1501). The IC50 values were assessed as the inhibitor concentration at which a 50% reduction in the level of firefly luciferase reporter was observed as compared to the level of firefly luciferase signal without the addition of compounds. […]

[2] = tested on: HCV GT-1b Con1 replicon pPI-luc/ET/SC in cured Huh7 cells; test: Transient replicon assay, IC50 determination (firefly luciferase reporter), parent replicon; type: cell-based; conditions: Hepatitis C virus, GT1B, Huh-7, luciferase read 72 hours after addition of inhibitor, read-out: IC50 VX-950

CCC[C@H](NC(=O)[C@@H]1[C@H]2CCC[C@H]2CN1C(=O)[C@@H](NC(=O)[C@@H](NC(=O)c1cnccn1)C1CCCCC1)C(C)(C)C)C(=O)C(=O)NC1CC1 [VX-950]
IC50 ([1]; patient isolate 34): 268 nM
IC50 ([1]; patient isolate 98): 205 nM
IC50 ([1]; patient isolate 5903): 97 nM
IC50 ([1]; patient isolate 34026): 48 nM
IC50 ([1]; patient isolate 52620): 92 nM
IC50 ([1]; patient isolate 61793): 381 nM
IC50 ([1]; patient isolate 66200): 332 nM
IC50 ([1]; patient isolate 73837-2): 228 nM
IC50 ([1]; patient isolate 135635): 394 nM
IC50 ([1]; patient isolate 135640): 385 nM
IC50 ([1]; patient isolate 135641): 175 nM
IC50 ([1]; patient isolate 135649): 108 nM
IC50 ([1]; patient isolate RO256): 93 nM
IC50 [2]: 253 nM
